Source: ChEMBL document CHEMBL1201862, “PubChem BioAssay data set” (2004)
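In this assay, cells in 96-well plates receive the compound at five concentrations for 48 hours. Endpoints are linearly interpolated between the surrounding concentrations. Here, GI50 denotes the concentration required for 50% inhibition of growth.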 Calls of active or inactive are those of the source. Cut-off read from the data, not from the text of the source: active = GI50 up to about 1.1 µM and inactive = higher.

Experiments:
Test in all cases: DTP human tumour cell line panel, 48 h
MOLT-4 = system: MOLT-4
786-0 = system: 786-0
OVCAR-3 = system: OVCAR-3
SK-OV-3 = system: SK-OV-3
HCT-15 = system: HCT-15
SK-MEL-2 = system: SK-MEL-2
LXFL 529 = system: LXFL 529
SK-MEL-28 = system: SK-MEL-28
M19-MEL = system: M19-MEL
CCRF-CEM = system: CCRF-CEM
ACHN = system: ACHN
RPMI-8226 = system: RPMI-8226
UO-31 = system: UO-31
KM12 = system: KM12
TK-10 = system: TK-10
HCT-116 = system: HCT-116
KM-20L2 = system: KM-20L2
UACC-62 = system: UACC-62
A549 = system: A549
NCI-H226 = system: NCI-H226
U-251 = system: U-251
DLD-1 = system: DLD-1
SR = system: SR
HOP-18 = system: HOP-18
LOX IMVI = system: LOX IMVI
OVCAR-4 = system: OVCAR-4
SNB-19 = system: SNB-19
DMS-273 = system: DMS-273
SN12C = system: SN12C
RXF 393 = system: RXF 393
UACC-257 = system: UACC-257
HOP-62 = system: HOP-62
OVCAR-8 = system: OVCAR-8
NCI-H23 = system: NCI-H23
M14 = system: M14
HCC 2998 = system: HCC 2998
HL-60 = system: HL-60
CAKI-1 = system: CAKI-1
NCI-H460 = system: NCI-H460
SF-268 = system: SF-268
Malme-3M = system: Malme-3M
DMS-114 = system: DMS-114
IGROV-1 = system: IGROV-1
EKVX = system: EKVX
SNB-75 = system: SNB-75
SF-295 = system: SF-295
XF498 = system: XF498
SK-MEL-5 = system: SK-MEL-5
HT-29 = system: HT-29
SW-620 = system: SW-620
NCI-H522 = system: NCI-H522
SNB-78 = system: SNB-78
K562 = system: K562
OVCAR-5 = system: OVCAR-5
COLO 205 = system: COLO 205
SF-539 = system: SF-539
HOP-92 = system: HOP-92
A498 = system: A498

## Cc1ccc(C2C(Cl)C(=O)N2n2cnc3ccccc3c2=O)cc1 (stereo not drawn)
MOLT-4
  GI50: 39.4 µM (inactive)
786-0
  GI50: > 100 µM (inactive)
OVCAR-3
  GI50: 81.1 µM (inactive)
SK-OV-3
  GI50: 67.3 µM (inactive)
HCT-15
  GI50: > 100 µM
SK-MEL-2
  GI50: > 100 µM (inactive)
LXFL 529
  GI50: > 100 µM (inactive)
SK-MEL-28
  GI50: > 100 µM (inactive)
M19-MEL
  GI50: > 100 µM (inactive)
CCRF-CEM
  GI50: > 100 µM (inactive)
ACHN
  GI50: > 100 µM (inactive)
RPMI-8226
  GI50: 37.3 µM (inactive)
UO-31
  GI50: 23.4 µM (inactive)
KM12
  GI50: > 100 µM (inactive)
TK-10
  GI50: > 100 µM (inactive)
HCT-116
  GI50: 89.3 µM (inactive)
KM-20L2
  GI50: > 100 µM (inactive)
UACC-62
  GI50: 99.8 µM (inactive)
A549
  GI50: > 100 µM (inactive)
NCI-H226
  GI50: 26 µM (inactive)
U-251
  GI50: > 100 µM (inactive)
DLD-1
  GI50: > 100 µM (inactive)
SR
  GI50: 21.5 µM (inactive)
HOP-18
  GI50: 18.1 µM (inactive)
LOX IMVI
  GI50: > 100 µM (inactive)
OVCAR-4
  GI50: 65.9 µM (inactive)
SNB-19
  GI50: 44 µM (inactive)
DMS-273
  GI50: > 100 µM (inactive)
SN12C
  GI50: > 100 µM (inactive)
RXF 393
  GI50: > 100 µM (inactive)
UACC-257
  GI50: 42 µM (inactive)
HOP-62
  GI50: > 100 µM (inactive)
OVCAR-8
  GI50: > 100 µM (inactive)
NCI-H23
  GI50: > 100 µM (inactive)
M14
  GI50: > 100 µM (inactive)
HCC 2998
  GI50: > 100 µM (inactive)
HL-60
  GI50: 29.6 µM (inactive)
CAKI-1
  GI50: > 100 µM (inactive)
NCI-H460
  GI50: > 100 µM (inactive)
SF-268
  GI50: > 100 µM (inactive)
Malme-3M
  GI50: > 100 µM (inactive)
DMS-114
  GI50: > 100 µM (inactive)
IGROV-1
  GI50: > 100 µM (inactive)
EKVX
  GI50: 26.5 µM (inactive)
SNB-75
  GI50: 91.6 µM (inactive)
SF-295
  GI50: > 100 µM (inactive)
XF498
  GI50: > 100 µM (inactive)
SK-MEL-5
  GI50: 82.2 µM (inactive)
HT-29
  GI50: > 100 µM (inactive)
SW-620
  GI50: > 100 µM (inactive)
NCI-H522
  GI50: > 100 µM (inactive)
SNB-78
  GI50: > 100 µM (inactive)
K562
  GI50: 52.2 µM (inactive)
OVCAR-5
  GI50: > 100 µM (inactive)
COLO 205
  GI50: > 100 µM (inactive)

## O=C(Nc1ccccc1)c1cccc([N+](=O)[O-])c1
MOLT-4
  GI50: 60.8 µM (inactive)
786-0
  GI50: > 100 µM (inactive)
OVCAR-3
  GI50: > 100 µM (inactive)
HCT-15
  GI50: > 100 µM
SK-MEL-28
  GI50: > 100 µM (inactive)
SF-539
  GI50: > 100 µM (inactive)
M19-MEL
  GI50: > 100 µM (inactive)
CCRF-CEM
  GI50: > 100 µM (inactive)
ACHN
  GI50: > 100 µM (inactive)
RPMI-8226
  GI50: 39.9 µM (inactive)
HCT-116
  GI50: > 100 µM (inactive)
KM-20L2
  GI50: 37.5 µM (inactive)
UACC-62
  GI50: > 100 µM (inactive)
A549
  GI50: > 100 µM (inactive)
U-251
  GI50: > 100 µM (inactive)
HOP-18
  GI50: > 100 µM (inactive)
SNB-19
  GI50: > 100 µM (inactive)
HOP-92
  GI50: > 100 µM (inactive)
DMS-273
  GI50: > 100 µM (inactive)
SN12C
  GI50: > 100 µM (inactive)
HOP-62
  GI50: > 100 µM (inactive)
OVCAR-8
  GI50: > 100 µM (inactive)
A498
  GI50: > 100 µM (inactive)
HCC 2998
  GI50: > 100 µM (inactive)
CAKI-1
  GI50: > 100 µM (inactive)
SF-268
  GI50: > 100 µM (inactive)
Malme-3M
  GI50: > 100 µM (inactive)
DMS-114
  GI50: 92.9 µM (inactive)
IGROV-1
  GI50: > 100 µM (inactive)
EKVX
  GI50: > 100 µM (inactive)
SNB-75
  GI50: > 100 µM (inactive)
XF498
  GI50: > 100 µM (inactive)
SK-MEL-5
  GI50: > 100 µM (inactive)
HT-29
  GI50: > 100 µM (inactive)
SW-620
  GI50: > 100 µM (inactive)
SNB-78
  GI50: > 100 µM (inactive)
K562
  GI50: > 100 µM (inactive)
COLO 205
  GI50: > 100 µM (inactive)
